In patent US8735632B2, “Compounds” (DSM IP Assets B.V., priority 2009, dated 2014):

What was measured:
Assay type in all cases: physicochemical
[1] = Solubility in C12-15 alkyl benzoate: saturation of the solvent, content in the supernatant by HPLC; conditions: pure cosmetic solvent
[2] = Solubility of BMDBM/BEMT in 1:1 (w/w) mixture C12-15 alkyl benzoate/PG-UVB, stored 1 month at RT, no re-crystallization
[3] = Reduction of solvent necessary to dissolve solid UV-filter; conditions: for reduction of the cosmetic solvent necessary to dissolve BMDBM: with PG-UVB 1:1
[4] = C12-15 alkyl benzoate/PG-UVB 1:1 versus C12-15 alkyl benzoate

Row | Compound | Solubility in C12-15 alkyl benzoate [1] | Δ solubility related to cosmetic solvent ([2]; C12-15 alkyl benzoate/PG-UVB 1:1) | Increase of solubility BMDBM/BEMT [2, 4] | Δ solubility [2, 4] | reduction of the cosmetic solvent necessary to dissolve BMDBM ([3]; C12-15 alkyl benzoate) | reduction of the cosmetic solvent necessary to dissolve BMDBM ([3]; diisopropyl sebacate) | amount of 1:1 (w/w) mixture of PG-UVB and C12-15 alkyl benzoate necessary to dissolve 0.5 g BMDBM ([3]; with PG-UVB of example 1) | amount of 1:1 (w/w) mixture of PG-UVB and diisopropyl sebacate needed to dissolve 0.5 g BMDBM ([3]; with PG-UVB of example 1)
1 | CCCCC(CC)COc1ccc(-c2nc(-c3ccc(OC)cc3)nc(-c3ccc(OCC(CC)CCCC)cc3O)n2)c(O)c1 (centres unmarked) [BEMT, bis-ethylhexyloxyphenol methoxyphenyl triazine] | 13 wt.-% | +13.5 wt.-% | +54% | +7 wt.-% |  |  |  | 
2 | butyl methoxydibenzoylmethane [BMDBM] |  |  |  |  | 75% | 65% | 1.5 g | 1.4 g
